# In patent US6413909B1, “Herbicide composition for control of rye grass and vetch in preplant burndown” (priority 2001, dated 2002):
# Key:
# humans and other mammals = conditions: result in words; cited from earlier work
# [1] = tested on: broadleaf weeds and grasses typically found in preplant corn fields; test: Field test of preplant burndown effectiveness (Example 1); assay type: in vivo; conditions: average of ratings 6 and 8 weeks after treatment
# Protocol: The composition of the present invention was tested for percent burndown effectiveness, compared to pretreatment, in fields containing broadleaf weeds and grasses typically found in preplant corn fields, including Texas panicum, fall panicum, signalgrass, goosegrass, barnyardgrass, yellow & green foxtail, pigweed, wild mustard, ryegrass, vetch, volunteer wheat, Florida pusley, smartweed, and cutleaf evening primrose.
# The composition of the present invention consisted of about 57% ametryn, 25% atrazine, and 18% paraquat, by weight, and was applied at a rate of about 2 lbs. per acre. On separate fields, for comparison, ametryn alone, paraquat alone, atrazine alone, and ametryn plus gramoxone were applied. The composition of the present invention was formulated by suspending 2 lbs. of the composition of the present invention per 20 gallons of water. Herbicides were rated for burndown effectiveness 6 and 8 weeks after treatment. The two resulting values were averaged.
# vetch = conditions: herbicide alone; cited from earlier work
Compound,toxicity to humans (humans and other mammals),"Percent Burndown ([1]; ametryn 1.14 lb active ingredient/acre, compared to pretreatment)",effective against vetch (vetch),Percent Burndown ([1]; paraquat 0.35 lb active ingredient/acre),Percent Burndown ([1]; paraquat 0.70 lb active ingredient/acre)
"CCNc1nc(NC(C)C)nc(SC)n1 [ametryn, 2-(ethylamino)-4-isopropylamino-6-methylthio-s-triazine]",minimal human toxicity,30%,100%,,
"C[n+]1ccc(-c2cc[n+](C)cc2)cc1 [paraquat, 1,1-dimethyl-4,4-bipyridinium]",high toxicity to humans and other mammals,,,30%,50%
